Reference: patent US12077503B2, “Substituted cyclic amides and their use as herbicides” (FMC CORPORATION, priority 2015, dated 2024)

Assays:
Assay type in all cases: in vivo
[1] = system: ivy-leaved morning glory (Ipomoea hederacea); assay: Test G Pre-Emergence Protocol; conditions: Ipomoea, pre-emergence, 312 h, evaluated after 13 days; for pest or weed control at 15.625 g/ha: 15.625 g ai/ha, read-out: Morning-glory, Ivy-leaved damage rating (100=total damage to plant; 0=no damage to plant); for pest or weed control at 62.5 g/ha: 62.5 g ai/ha, 100=total damage to plant, 0=no damage to plant, read-out: plant damage rating, Morningglory, Ivy-leaved; for pest or weed control at 250 g/ha: 250 g ai/ha, read-out: Morningglory, Ivy-leaved damage rating (100=total damage to plant; 0=no damage to plant)
Outline: (§1)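 Glasshouse pre-emergence test: soil-sown seeds, sprayed after 1 d at 15.625, 62.5 or 250 g/ha. Conditions 24/16° C day/night, 14 h light, 65% humidity, watering twice daily. Rating 13 d post-spray (100 = total damage).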

[2] = system: redroot pigweed (Amaranthus retroflexus); assay: Test G Pre-Emergence Protocol; conditions: Amaranthus retroflexus, pre-emergence, 312 h, evaluated after 13 days; for pest or weed control at 15.625 g/ha: 15.625 g ai/ha; for pest or weed control at 15.625 g/ha / pest or weed control at 250 g/ha: read-out: Pigweed, Redroot damage rating (100=total damage to plant; 0=no damage to plant); for pest or weed control at 62.5 g/ha: 62.5 g ai/ha, 100=total damage to plant, 0=no damage to plant, read-out: plant damage rating, Pigweed, Redroot; for pest or weed control at 250 g/ha: 250 g ai/ha
Outline: as §1

[3] = system: giant foxtail (Setaria faberi); assay: Test G Pre-Emergence Protocol; conditions: Setaria faberi, pre-emergence, 312 h, evaluated after 13 days; for pest or weed control at 15.625 g/ha: 15.625 g ai/ha; for pest or weed control at 15.625 g/ha / pest or weed control at 250 g/ha: read-out: Foxtail, Giant damage rating (100=total damage to plant; 0=no damage to plant); for pest or weed control at 62.5 g/ha: 62.5 g ai/ha, 100=total damage to plant, 0=no damage to plant, read-out: plant damage rating, Foxtail, Giant; for pest or weed control at 250 g/ha: 250 g ai/ha
Outline: as §1

[4] = system: barnyardgrass (Echinochloa crus-galli); assay: Test G Pre-Emergence Protocol; conditions: Echinochloa crus-galli, pre-emergence, 312 h, evaluated after 13 days; for pest or weed control at 15.625 g/ha: 15.625 g ai/ha, read-out: Barnyard grass damage rating (100=total damage to plant; 0=no damage to plant); for pest or weed control at 62.5 g/ha: 62.5 g ai/ha, 100=total damage to plant, 0=no damage to plant, read-out: plant damage rating, Barnyardgrass; for pest or weed control at 250 g/ha: 250 g ai/ha, read-out: Barnyardgrass damage rating (100=total damage to plant; 0=no damage to plant)
Outline: as §1

[5] = system: velvetleaf (Abutilon theophrasti); assay: Test G Pre-Emergence Protocol; conditions: Abutilon theophrasti, pre-emergence, 312 h, evaluated after 13 days; for pest or weed control at 15.625 g/ha: 15.625 g ai/ha; for pest or weed control at 15.625 g/ha / pest or weed control at 250 g/ha: read-out: Velvetleaf damage rating (100=total damage to plant; 0=no damage to plant); for pest or weed control at 62.5 g/ha: 62.5 g ai/ha, 100=total damage to plant, 0=no damage to plant, read-out: plant damage rating, Velvetleaf; for pest or weed control at 250 g/ha: 250 g ai/ha
Outline: as §1

[6] = system: corn (Zea mays); assay: Test G Pre-Emergence Protocol; conditions: Zea mays, pre-emergence, 312 h, evaluated after 13 days; for plant injury at 15.625 g/ha: 15.625 g ai/ha; for plant injury at 15.625 g/ha / plant injury at 250 g/ha: read-out: Corn damage rating (100=total damage to plant; 0=no damage to plant); for plant injury at 62.5 g/ha: 62.5 g ai/ha, 100=total damage to plant, 0=no damage to plant, read-out: plant damage rating, Corn; for plant injury at 250 g/ha: 250 g ai/ha
Outline: as §1

[7] = system: ivy-leaved morning glory (Ipomoea hederacea); assay: Test G Post-Emergence Protocol; conditions: Ipomoea, post-emergence, 312 h; for pest or weed control at 15.625 g/ha: 15.625 g ai/ha, evaluated after 13 days (100=total damage to plant; 0=no damage to plant), read-out: Morningglory, Ivy-leaved damage rating; for pest or weed control at 62.5 g/ha: 62.5 g ai/ha, read-out: Morningglory, Ivy-leaved damage rating (100=total damage to plant; 0=no damage to plant); for pest or weed control at 62.5 g/ha / pest or weed control at 250 g/ha: evaluated after 13 days; for pest or weed control at 250 g/ha: 250 g ai/ha, read-out: damage to plant, Morningglory, Ivy-leaved (100=total damage to plant; 0=no damage to plant)
Outline: (§2)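 A glasshouse post-emergence test: 8-day-old plants sprayed at 15.625, 62.5 or 250 g/ha, then grown at 24/16 °C day/night with 14 h light and 65% humidity. Damage rated 13 days later, 0–100.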

[8] = system: redroot pigweed (Amaranthus retroflexus); assay: Test G Post-Emergence Protocol; conditions: Amaranthus retroflexus, post-emergence, 312 h; for pest or weed control at 15.625 g/ha: 15.625 g ai/ha, evaluated after 13 days (100=total damage to plant; 0=no damage to plant), read-out: Pigweed, Redroot damage rating; for pest or weed control at 62.5 g/ha: 62.5 g ai/ha, read-out: Pigweed, Redroot damage rating (100=total damage to plant; 0=no damage to plant); for pest or weed control at 62.5 g/ha / pest or weed control at 250 g/ha: evaluated after 13 days; for pest or weed control at 250 g/ha: 250 g ai/ha, read-out: damage to plant, Pigweed, Redroot (100=total damage to plant; 0=no damage to plant)
Outline: as §2

[9] = system: giant foxtail (Setaria faberi); assay: Test G Post-Emergence Protocol; conditions: Setaria faberi, post-emergence, 312 h; for pest or weed control at 15.625 g/ha: 15.625 g ai/ha, evaluated after 13 days (100=total damage to plant; 0=no damage to plant), read-out: Foxtail, Giant damage rating; for pest or weed control at 62.5 g/ha: 62.5 g ai/ha, read-out: Foxtail, Giant damage rating (100=total damage to plant; 0=no damage to plant); for pest or weed control at 62.5 g/ha / pest or weed control at 250 g/ha: evaluated after 13 days; for pest or weed control at 250 g/ha: 250 g ai/ha, read-out: damage to plant, Foxtail, Giant (100=total damage to plant; 0=no damage to plant)
Outline: as §2

[10] = system: barnyardgrass (Echinochloa crus-galli); assay: Test G Post-Emergence Protocol; conditions: Echinochloa crus-galli, post-emergence, 312 h; for pest or weed control at 15.625 g/ha: 15.625 g ai/ha, evaluated after 13 days (100=total damage to plant; 0=no damage to plant), read-out: Barnyardgrass damage rating; for pest or weed control at 62.5 g/ha: 62.5 g ai/ha, read-out: Barnyardgrass damage rating (100=total damage to plant; 0=no damage to plant); for pest or weed control at 62.5 g/ha / pest or weed control at 250 g/ha: evaluated after 13 days; for pest or weed control at 250 g/ha: 250 g ai/ha, read-out: damage to plant, Barnyardgrass (100=total damage to plant; 0=no damage to plant)
Outline: as §2

[11] = system: velvetleaf (Abutilon theophrasti); assay: Test G Post-Emergence Protocol; conditions: Abutilon theophrasti, post-emergence, 312 h; for pest or weed control at 15.625 g/ha: 15.625 g ai/ha, evaluated after 13 days (100=total damage to plant; 0=no damage to plant), read-out: Velvetleaf damage rating; for pest or weed control at 62.5 g/ha: 62.5 g ai/ha, read-out: Velvetleaf damage rating (100=total damage to plant; 0=no damage to plant); for pest or weed control at 62.5 g/ha / pest or weed control at 250 g/ha: evaluated after 13 days; for pest or weed control at 250 g/ha: 250 g ai/ha, read-out: damage to plant, Velvetleaf (100=total damage to plant; 0=no damage to plant)
Outline: as §2

[12] = system: corn (Zea mays); assay: Test G Post-Emergence Protocol; conditions: Zea mays, post-emergence, 312 h; for plant injury at 15.625 g/ha: 15.625 g ai/ha, evaluated after 13 days (100=total damage to plant; 0=no damage to plant), read-out: Corn damage rating; for plant injury at 62.5 g/ha: 62.5 g ai/ha, read-out: Corn damage rating (100=total damage to plant; 0=no damage to plant); for plant injury at 62.5 g/ha / plant injury at 250 g/ha: evaluated after 13 days; for plant injury at 250 g/ha: 250 g ai/ha, read-out: damage to plant, Corn (100=total damage to plant; 0=no damage to plant)
Outline: as §2

Row | SMILES | pest or weed control at 15.625 g/ha [1] [%] | pest or weed control at 62.5 g/ha [1] [%] | pest or weed control at 250 g/ha [1] [%] | pest or weed control at 15.625 g/ha [2] [%] | pest or weed control at 62.5 g/ha [2] [%] | pest or weed control at 250 g/ha [2] [%] | pest or weed control at 15.625 g/ha [3] [%] | pest or weed control at 62.5 g/ha [3] [%] | pest or weed control at 250 g/ha [3] [%] | pest or weed control at 15.625 g/ha [4] [%] | pest or weed control at 62.5 g/ha [4] [%] | pest or weed control at 250 g/ha [4] [%] | pest or weed control at 15.625 g/ha [5] [%] | pest or weed control at 62.5 g/ha [5] [%] | pest or weed control at 250 g/ha [5] [%] | plant injury at 15.625 g/ha [6] [%] | plant injury at 62.5 g/ha [6] [%] | plant injury at 250 g/ha [6] [%] | pest or weed control at 15.625 g/ha [7] [%] | pest or weed control at 62.5 g/ha [7] [%] | further results
1 | Cc1cc([C@@H]2CN(C)C(=O)[C@H]2C(=O)Nc2cccc(F)c2F)cc(Cl)n1 (racemic) [Compound 1481] | 0 | 0 | 10 | 0 | 0 | 20 | 40 | 60 | 90 | 20 | 40 | 80 | 0 | 0 | 10 | 30 | 30 | 60 | 0 | 10 | pest or weed control at 250 g/ha [7]: 80%; pest or weed control at 15.625 g/ha [8]: 0%; pest or weed control at 62.5 g/ha [8]: 0%; pest or weed control at 250 g/ha [8]: 20%; pest or weed control at 15.625 g/ha [9]: 40%; pest or weed control at 62.5 g/ha [9]: 60%; pest or weed control at 250 g/ha [9]: 70%; pest or weed control at 15.625 g/ha [10]: 30%; pest or weed control at 62.5 g/ha [10]: 60%; pest or weed control at 250 g/ha [10]: 70%; pest or weed control at 15.625 g/ha [11]: 0%; pest or weed control at 62.5 g/ha [11]: 0%; pest or weed control at 250 g/ha [11]: 10%; plant injury at 15.625 g/ha [12]: 20%; plant injury at 62.5 g/ha [12]: 20%; plant injury at 250 g/ha [12]: 60%
2 | CN1C[C@H](c2ccc3c(c2)OCCO3)[C@@H](C(=O)Nc2cccc(F)c2F)C1=O (racemic) [Compound 1490] | 0 | 0 | 0 | 0 | 0 | 0 | 0 | 40 | 90 | 0 | 50 | 80 | 0 | 0 | 0 | 0 | 0 | 10 | 0 | 0 | pest or weed control at 250 g/ha [7]: 30%; pest or weed control at 15.625 g/ha [8]: 0%; pest or weed control at 62.5 g/ha [8]: 0%; pest or weed control at 250 g/ha [8]: 0%; pest or weed control at 15.625 g/ha [9]: 50%; pest or weed control at 62.5 g/ha [9]: 60%; pest or weed control at 250 g/ha [9]: 60%; pest or weed control at 15.625 g/ha [10]: 50%; pest or weed control at 62.5 g/ha [10]: 60%; pest or weed control at 250 g/ha [10]: 60%; pest or weed control at 15.625 g/ha [11]: 0%; pest or weed control at 62.5 g/ha [11]: 0%; pest or weed control at 250 g/ha [11]: 20%; plant injury at 15.625 g/ha [12]: 0%; plant injury at 62.5 g/ha [12]: 30%; plant injury at 250 g/ha [12]: 40%
3 | Cc1nc(F)ccc1[C@@H]1CN(C)C(=O)[C@H]1C(=O)Nc1cccc(F)c1F (racemic) [Compound 1492] | 0 | 0 | 0 | 0 | 0 | 0 | 0 | 20 | 80 | 0 | 20 | 80 | 0 | 0 | 0 | 0 | 0 | 0 | 0 | 0 | pest or weed control at 250 g/ha [7]: 0%; pest or weed control at 15.625 g/ha [8]: 0%; pest or weed control at 62.5 g/ha [8]: 0%; pest or weed control at 250 g/ha [8]: 0%; pest or weed control at 15.625 g/ha [9]: 0%; pest or weed control at 62.5 g/ha [9]: 40%; pest or weed control at 250 g/ha [9]: 60%; pest or weed control at 15.625 g/ha [10]: 0%; pest or weed control at 62.5 g/ha [10]: 30%; pest or weed control at 250 g/ha [10]: 60%; pest or weed control at 15.625 g/ha [11]: 0%; pest or weed control at 62.5 g/ha [11]: 0%; pest or weed control at 250 g/ha [11]: 20%; plant injury at 15.625 g/ha [12]: 0%; plant injury at 62.5 g/ha [12]: 0%; plant injury at 250 g/ha [12]: 0%
